Results taken from PubChem BioAssay (NCI).
Several values for one entry are separate records, joined by “and”; a condition that tells them apart may be missing. Identical values can stand only once.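 48-hour exposure; five concentrations; linearly interpolated endpoints. GI50 is the concentration that inhibits growth by half. TGI is the concentration that stops growth completely.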

Legend:
Assay in all cases: inhibition of tumour cell growth, NCI panel, 48 h
[1] = test system: COLO 205 colon
[2] = test system: NCI-H460 lung
[3] = test system: UO-31 renal
[4] = test system: NCI-H23 lung
[5] = test system: A549 NSCLC
[6] = test system: HCT-116 colon
[7] = test system: CAKI-1 renal
[8] = test system: MDA-MB-231 breast
[9] = test system: OVCAR-4 ovarian
[10] = test system: U251 CNS

| Compound | TGI [1] [µM] | TGI [2] [µM] | TGI [3] [µM] | TGI [4] [µM] | TGI [5] [µM] | TGI [6] [µM] | TGI [7] [µM] | TGI [8] | TGI [9] [µM] | TGI [10] [µM] | GI50 [8] [µM] | GI50 [10] [µM] | GI50 [1] [µM] |
| --- | --- | --- | --- | --- | --- | --- | --- | --- | --- | --- | --- | --- | --- |
| O=C(OCCN=c1c2ccccc2ccc2ccccc12)c1ccc([N+](=O)[O-])cc1 | > 100 | > 100 | > 100 | > 100 | > 100 | > 100 | > 100 | > 100 µM | > 100 | > 100 |  |  |  |
| Cc1c(NC(=O)CSC(=S)N2CCN(Cc3ccccc3)CC2)c(=O)n(-c2ccccc2)n1C | > 100 | > 100 | > 100 | > 100 | > 100 | > 100 | > 100 | > 100 µM | > 100 | > 100 |  |  |  |
| CC1=NN(c2nc(N)nc(/C(C#N)=C/c3cccn3-c3cc(Cl)cc(Cl)c3)n2)C(C)(C)C1 | > 100 | > 100 | > 100 | > 100 | > 100 | > 100 | > 100 | > 100 µM | > 100 | 28.3 |  |  |  |
| CCNC(=O)c1cc(/C=C/c2ccc([N+](=O)[O-])o2)nc2ccccc12 | > 84.2 | 17.4 | > 100 | > 100 | > 100 | > 100 | > 100 | > 100 µM | > 100 | > 100 |  |  |  |
| O=C(Nc1ccccc1)N(CCCCN(Cc1ccccc1)C(=O)Nc1ccccc1)Cc1ccccc1 | > 100 | > 100 | > 100 | > 100 | > 100 | > 100 | > 100 | > 100 µM | > 100 | > 100 |  |  |  |
| COc1cc(C2c3cc4c(cc3OC(NNC(N)=O)C2C)OCO4)cc(OC)c1O (stereo not drawn) | 9.4 | > 100 | > 100 | > 100 | > 80.9 | > 56.5 | > 100 | > 56.9 µM | > 100 | > 53.1 |  |  |  |
| N#Cc1ccccc1-c1nc2c3c(c(N)ccc3n1)C(=O)c1ccccc1-2 | > 100 | > 100 | > 100 | > 100 | > 100 | > 100 | 43.6 | > 100 µM | > 100 | > 100 |  |  |  |
| COC(=O)C(Cc1ccccc1)NP(=O)(O)OCC1OC(n2cc(F)c(=O)[nH]c2=O)CC1O (stereo not drawn) | > 100 | > 100 | > 100 | > 100 | > 100 | > 100 | > 100 | > 100 µM | > 100 | > 100 |  |  |  |
| COC(=O)c1c(O)ccc2c1c1c(n2Cc2cccc(C)c2)C(=O)c2ccccc2C1=O | 3.04 | 16.7 | 19.8 | 26 | 20.3 | 20.2 | 25.7 | 35.3 µM | 20.1 | 24.4 |  |  |  |
| C(CCCCc1nnc(N2CCCCC2)o1)CCCc1nnc(N2CCCCC2)o1 | > 100 | > 100 | > 100 | > 100 | > 100 | > 100 | > 100 | > 100 µM | > 100 | > 100 |  |  |  |
| C=C(C)C(O)C(O)c1c(OC)ccc2ccc(=O)oc12 (stereo not drawn) | > 100 | > 100 | > 100 | > 100 | > 100 | > 100 | > 100 | > 100 µM | > 100 | > 100 |  |  |  |
| O=c1ccn(CC2(CO)CC(Cc3ccccc3)C2)c(=O)[nH]1 (stereo not drawn) | > 100 | > 100 | > 100 | > 100 | > 100 | > 100 | > 100 | > 100 µM | > 100 | > 100 |  |  |  |
| CC(C)(Oc1ccc(Cl)cc1)C(=O)N(C(=O)N1CCC(c2ccccc2)CC1)c1ccccc1 | > 62.5 | > 100 | > 100 | > 100 | > 100 | > 100 | > 100 | > 100 µM | > 100 | > 100 |  |  |  |
| COc1ccc(NC(C)=O)cc1N1C(=O)/C(=C\c2cc(OC)c(OC)c(OC)c2)SC1c1ccccc1 (stereo not drawn) | > 100 | > 100 | > 100 | > 100 | > 100 | > 100 | 60.2 | > 100 µM | > 100 | > 100 |  |  |  |
| CSC1=N/C(=C\c2ccco2)C(=O)N1CN1CCOCC1 | > 100 | 27.7 | > 100 | > 100 | > 100 | > 66.9 | > 100 | > 100 µM | > 100 | > 100 |  |  |  |
| CC1(C)CC(C)(C)C1=NNC(N)=O | > 100 | > 100 | > 100 | > 100 | > 100 | > 100 | > 100 | > 100 µM | > 100 | > 100 |  |  |  |
| c1ccc2c(c1)CCc1c-2n(CCN2CCOCC2)c2ccccc12 | > 100 | 92.9 | > 100 | > 100 | > 100 | > 100 | > 100 | > 100 µM | > 100 | > 100 |  |  |  |
| O=C(O)c1nc(-c2ccccc2)[nH]c1C(=O)O | 31.7 | 29.2 | 24.8 | 31.8 | 29.3 | 16 | 27.5 | 11.3 µM | 32.1 | 8.33 |  |  |  |
| COC(=O)c1cc2ccc(OC(C)=O)c(OC(C)=O)c2cn1 | 36.3 | 39.7 | 30 | 36.8 | 43 | 32.7 | 35.9 | 7.12 µM and 42.9 µM | 30.6 | 28.2 | 17.7 | 12.7 |  |

| Compound | TGI [1] [µM] | TGI [2] [µM] | TGI [3] [µM] | TGI [4] [µM] | TGI [5] [µM] | TGI [6] [µM] | TGI [7] [µM] | TGI [8] | TGI [9] [µM] | TGI [10] [µM] | GI50 [8] [µM] | GI50 [10] [µM] | GI50 [1] [µM] |
| --- | --- | --- | --- | --- | --- | --- | --- | --- | --- | --- | --- | --- | --- |
| COc1ccc(C(SC2C(O)C(CO)OC2n2ccc(N)nc2=O)(c2ccccc2)c2ccc(OC)cc2)cc1 (stereo not drawn) | 28.7 | 27.2 | 42.8 | 57.6 | 54.2 | 29.4 | > 100 | 30.8 µM | 78.2 | 33 |  |  |  |
| Nc1ncnc2c1nnn2C1CCC(CP(=O)(O)O)C1 (stereo not drawn) | > 100 | > 100 | > 100 | > 100 | > 100 | > 100 | > 100 | > 100 µM | > 100 | > 100 |  |  |  |
| C/C=C(/C)C(=O)O[C@H](C[C@@H](C)[C@H]1CC(c2ccoc2)OC1=O)[C@@]1(C)C(=O)CCC2O[C@]21C (stereo partly drawn) | > 100 | > 100 | > 100 | > 100 | > 100 | > 100 | > 100 | > 100 µM | > 100 | > 100 |  |  |  |
| CC(=O)c1c(C(F)(F)F)n([O-])c2cc(Cl)c(Cl)cc2[n+]1=O | 2.11 | 0.852 | 1.59 | 2.71 | 1.91 | 1.61 | 3.33 | 2.99 µM | 2.73 | 2.63 |  |  |  |
| Cc1c2c(n(CCc3ccc(Cl)cc3)c1C)NC(c1ccccc1)C(C#N)S2(=O)=O (stereo not drawn) | > 71.4 | > 100 | > 100 | > 100 | > 100 | > 100 | > 100 | > 59.3 µM | > 100 | > 100 |  |  |  |
| O=c1oc2ccccc2cc1-c1cn2cc(Cl)ccc2n1 | > 50.3 | 13.6 | 6.79 | 21.1 | 16.8 | 14.7 | 3.28 | 23.1 µM | 12.8 | 13.9 |  |  |  |
| CC1(O)CC(=O)c2c(cc3ccc(-c4c5c(c(O)c6c(O)cccc46)C(=O)CC(C)(O)C5)c(O)c3c2O)C1 (stereo not drawn) | 0.158 | 5.64 | 0.726 | 1.35 | 11.1 | 3.86 | 2.92 | 3.93 µM | 12.9 | 1.74 |  |  | 0.0361 |
| COc1cc(/C=C2/C[C@H]3[C@@H]4CC=C5C[C@@H](OC(C)=O)CC[C@]5(C)[C@H]4CC[C@]3(C)NC2=O)cc(OC)c1OC | > 100 | > 100 | 50.2 | 67 | 59.3 | > 100 | > 100 | 62.5 µM | 62.3 | 46.5 |  |  |  |
| CC1(C)[C@H]2CC[C@]1(C)[C@H](OC(=O)NNC(=O)O[C@@H]1C[C@@H]3CC[C@@]1(C)C3(C)C)C2 | 25.6 | 28.6 | 29.2 | 34.9 | 25.1 | 34.5 | 28.8 | 27.6 µM | 24.1 | 62.9 |  |  |  |
| CCOC(=O)c1cc2c(C(=O)c3ccc([N+](=O)[O-])cc3)c(C(C)=O)ccc2[nH]1 | > 100 | > 100 | > 100 | > 100 | > 100 | > 100 | > 100 | 53.4 µM | > 100 | 32.3 |  |  |  |
| CC(=O)Nc1ccc(OC2=CCN(C)CC2)cc1 | > 100 | > 100 | > 100 | > 100 | > 100 | > 100 | > 100 | > 100 µM | > 100 | > 100 |  |  |  |
| COC(=O)[C@H]1CO[C@H]2C/C(C)=C/CC/C(C)=C/CC[C@@]3(C)O[C@@H]3C[C@H]21 | 22.6 | 21.9 | > 50 | > 50 | > 50 | 24.9 | > 50 | 40.6 µM | > 50 | > 50 |  |  |  |
| CCCCCCCCCCCCCCCCCCNc1ccn(C2OC(COP(=O)(O)OCC3OC(n4cc(F)c(NCCCCCCCCCCCCCCCCCC)nc4=O)CC3O)C(O)C2O)c(=O)n1 (stereo not drawn) | > 100 | > 100 | > 100 | > 100 | > 100 | > 100 | > 100 | > 100 µM | > 100 | > 100 |  |  |  |
| O=C(O)c1ccn(-c2cccc(-n3ccc(C(=O)O)n3)n2)n1 | > 100 | > 100 | > 100 | > 100 | > 100 | > 100 | > 100 | > 100 µM | > 100 | > 100 |  |  |  |
| O=C1/C(=N\S(=O)(=O)c2ccccc2)C([n+]2ccc(Cc3ccccc3)cc2)=C([O-])c2ccccc21 | 1.14 | 2.22 | 4.62 | 1.36 | 3.74 | 2.46 | 3.44 | 9.89 µM | 3.13 | 5.48 |  |  |  |
| CCOC(=O)c1c(N2CCCC2)ncn(Cc2ccccc2)c1=S | > 100 | > 100 | > 100 | > 100 | > 100 | > 100 | 88.3 | > 100 µM | > 100 | > 100 |  |  |  |
| CSc1n[nH]c(N)c1C(=O)Nc1ccc(C)cc1 | > 100 | > 100 | > 100 | > 100 | > 100 | > 100 | > 100 | > 100 µM | > 100 | > 100 |  |  |  |
| CCCC(=O)NC(Nc1ccc(S(=O)(=O)Nc2nc(C)cc(C)n2)cc1)(C(F)(F)F)C(F)(F)F | > 100 | > 100 | > 100 | > 100 | > 100 | > 100 | > 100 | > 100 µM | > 100 | > 100 |  |  |  |
